# Literature values as cited in patent US8808764B2, “Methods and compositions for increasing growth hormones” (Quality IP Holdings, Inc., priority 2012, dated 2014).
# Tests used:
# GH = conditions: subcutaneous injection of 0.06 IU in GH deficient subjects
molecule,measurement,setting,value
HGH: human growth hormone given by subcutaneous injection to GH deficient subjects,mean level of GH reached,GH,0.4 ng/mL
N=C(N)NCCC[C@H](N)C(=O)O [arginine],elevation of serum hGH levels,"hGH; 30 g, intravenous, in males",8.6 fold
same,increase in hGH levels,hGH; intravenous infusion of 183 mg/kg body weight in females,≥ 20 fold
